# Target: T1, FOXM1 (Rattus norvegicus, UniProt P97691)
# T1 construct: from tissue; host or cells: Sprague Dawley rat spinal cord
# T1 sequence (P97691 1-759): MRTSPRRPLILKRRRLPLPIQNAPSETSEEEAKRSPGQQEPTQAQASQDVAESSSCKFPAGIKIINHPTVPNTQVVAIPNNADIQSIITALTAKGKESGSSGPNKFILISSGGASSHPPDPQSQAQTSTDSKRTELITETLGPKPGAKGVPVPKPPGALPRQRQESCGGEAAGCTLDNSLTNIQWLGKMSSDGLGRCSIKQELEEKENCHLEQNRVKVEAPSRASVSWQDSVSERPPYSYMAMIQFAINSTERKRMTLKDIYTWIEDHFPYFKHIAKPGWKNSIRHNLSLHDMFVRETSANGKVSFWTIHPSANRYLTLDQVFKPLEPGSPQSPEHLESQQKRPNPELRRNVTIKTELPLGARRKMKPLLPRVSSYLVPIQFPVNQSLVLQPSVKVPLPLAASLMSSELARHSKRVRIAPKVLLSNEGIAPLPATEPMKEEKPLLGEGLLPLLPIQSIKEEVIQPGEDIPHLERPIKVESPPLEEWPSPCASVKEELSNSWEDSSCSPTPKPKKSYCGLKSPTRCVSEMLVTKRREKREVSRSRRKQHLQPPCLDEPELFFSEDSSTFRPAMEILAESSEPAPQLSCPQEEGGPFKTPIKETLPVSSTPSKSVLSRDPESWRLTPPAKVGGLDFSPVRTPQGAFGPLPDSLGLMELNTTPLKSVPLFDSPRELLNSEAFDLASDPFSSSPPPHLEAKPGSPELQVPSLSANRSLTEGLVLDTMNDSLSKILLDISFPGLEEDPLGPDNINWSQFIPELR
# Test: RT-qPCR of FOXM1 target gene transcripts in spinal cord
# Type: in vivo
# Details: rats, compared to intact controls, FIG. 5G
# Experimental: Animals and Drugs. This study was carried out in strict accordance with the recommendations in the Guide for the Care and Use of Laboratory Animals of the National Institutes of Health. All experiments were performed under the IUCAC approval of City of Hope. Animals were purchased from Jackson Laboratory (Bar Harbor, Main). For the pilot pharmacokinetic experiment, nine male Sprague Dawley rats (n=3) were administered 1, 10, or 100 mg/kg intraperitoneal injections thrice per week for four weeks. One hour following the final dose, blood and spinal fluid were collected and analyzed by mass spectrometry. For the efficacy experiment, rats were divided into 3 groups (n=7) as follows: intact, castrated, and thiostrepton. […] Following a treatment period of 7 days, rats were euthanized and organs harvested, weighed and processed for quantitative RT-PCR.
# qRT-PCR. The quantitative RT-PCR method has been described by Jones et al, ACS Chem Biol, 3(7):412-8 (2008). […] Differences between experimental (x) and control (y) samples were normalized to RPL19 transcript levels (androgen unresponsive) and determined with the following calculation: (2^(Ctsgene1-Ctygene1))/(2^(CtxRPL19-CtyRPL19)) One-way analysis of variance was applied to determine statistical significant among groups, where p<0.05 was considered significant. […]
compound,measurement,value
C=C(NC(=O)C(=C)NC(=O)c1csc(C2=N[C@@H]3c4csc(n4)[C@H]4NC(=O)c5csc(n5)[C@H]([C@](C)(O)[C@@H](C)O)NC(=O)[C@H]5CSC(=N5)/C(=C/C)NC(=O)[C@H]([C@@H](C)O)NC(=O)c5csc(n5)[C@]3(CC2)NC(=O)[C@H](C)NC(=O)C(=C)NC(=O)[C@H](C)NC(=O)[C@H]([C@@H](C)CC)N[C@@H]2C=Cc3c([C@H](C)O)cc(nc3[C@H]2O)C(=O)O[C@@H]4C)n1)C(N)=O [thiostrepton],transcript levels of FOXM1 target genes Ccndl and Sox2,decreased
